Data as given in ChEMBL document CHEMBL3797052 (Eur J Med Chem, 2016).

Assays:
[1] = test system: MDA-MB-231; assay: Antiproliferative activity against human MDA-MB-231 cells assessed as cell growth at 10^-7 M after 48 hrs by sulforhodamine B assay; format: functional; settings: MDA-MB-231, 48 h, read-out: Activity
[2] = test system: A498; assay: Antiproliferative activity against human A498 cells assessed as cell growth at 10^-6 M after 48 hrs by sulforhodamine B assay; format: functional; settings: A498, 48 h, read-out: Activity
[3] = test system: NCI-H322M; assay: Antiproliferative activity against human NCI-H322M cells assessed as cell growth at 10^-6 M after 48 hrs by sulforhodamine B assay; format: functional; settings: read-out: Activity
[4] = Antiproliferative activity against human IGROV1 cells assessed as cell growth at 10^-6 M after 48 hrs by sulforhodamine B assay; format: functional; settings: IGROV-1, 48 h, read-out: Activity
[5] = test system: SR; assay: Antiproliferative activity against human SR cells assessed as cell growth at 10^-8 M after 48 hrs by sulforhodamine B assay; format: functional; settings: read-out: Activity
[6] = Antiproliferative activity against human BT549 cells assessed as growth inhibition after 48 hrs by sulforhodamine B assay; format: functional; settings: BT-549, 48 h
[7] = test system: SK-MEL-5; assay: Antiproliferative activity against human SK-MEL-5 cells assessed as cell growth at 10^-8 M after 48 hrs by sulforhodamine B assay; format: functional; settings: SK-MEL-5, 48 h, read-out: Activity
[8] = test system: CCRF-CEM; assay: Antiproliferative activity against human CCRF-CEM cells assessed as cell growth at 10^-4 M after 48 hrs by sulforhodamine B assay; format: functional; settings: read-out: Activity
[9] = Antiproliferative activity against human Caki1 cells assessed as cell growth at 10^-4 M after 48 hrs by sulforhodamine B assay; format: functional; settings: CAKI-1, 48 h, read-out: Activity
[10] = test system: 786-0; assay: Antiproliferative activity against human 786-0 cells assessed as cell growth at 10^-8 M after 48 hrs by sulforhodamine B assay; format: functional; settings: 786-0, 48 h, read-out: Activity
[11] = test system: T47D; assay: Antiproliferative activity against human T47D cells assessed as growth inhibition after 48 hrs by sulforhodamine B assay; format: functional
[12] = test system: NCI-H460; assay: Antiproliferative activity against human NCI-H460 cells assessed as growth inhibition after 48 hrs by sulforhodamine B assay; format: functional; settings: NCI-H460, 48 h
[13] = Antiproliferative activity against human Hs 578T cells assessed as cell growth at 10^-4 M after 48 hrs by sulforhodamine B assay; format: functional; settings: read-out: Activity
[14] = test system: MDA-MB-468; assay: Antiproliferative activity against human MDA-MB-468 cells assessed as cell growth at 10^-7 M after 48 hrs by sulforhodamine B assay; format: functional; settings: MDA-MB-468, 48 h, read-out: Activity
[15] = Antiproliferative activity against human UACC62 cells assessed as cell growth at 10^-6 M after 48 hrs by sulforhodamine B assay; format: functional; settings: UACC-62, 48 h, read-out: Activity
[16] = test system: NCI-H522; assay: Antiproliferative activity against human NCI-H522 cells assessed as cell growth at 10^-4 M after 48 hrs by sulforhodamine B assay; format: functional; settings: NCI-H522, 48 h, read-out: Activity
[17] = Antiproliferative activity against human UACC62 cells assessed as cell growth at 10^-8 M after 48 hrs by sulforhodamine B assay; format: functional; settings: UACC-62, 48 h, read-out: Activity
[18] = Antiproliferative activity against human SF539 cells assessed as cell growth at 10^-7 M after 48 hrs by sulforhodamine B assay; format: functional; settings: SF-539, 48 h, read-out: Activity
[19] = Antiproliferative activity against human DU145 cells assessed as cell growth at 10^-7 M after 48 hrs by sulforhodamine B assay; format: functional; settings: DU-145, 48 h, read-out: Activity
[20] = Antiproliferative activity against human TK10 cells assessed as cell growth at 10^-4 M after 48 hrs by sulforhodamine B assay; format: functional; settings: TK-10, 48 h, read-out: Activity
[21] = Antiproliferative activity against human RXF393 cells assessed as cell growth at 10^-8 M after 48 hrs by sulforhodamine B assay; format: functional; settings: RXF 393, 48 h, read-out: Activity
[22] = Antiproliferative activity against human BT549 cells assessed as cell growth at 10^-8 M after 48 hrs by sulforhodamine B assay; format: functional; settings: BT-549, 48 h, read-out: Activity
[23] = test system: MCF7; assay: Antiproliferative activity against human MCF7 cells assessed as cell growth at 10^-7 M after 48 hrs by sulforhodamine B assay; format: functional; settings: MCF7, 48 h, read-out: Activity
[24] = Antiproliferative activity against human RXF393 cells assessed as cell growth at 10^-6 M after 48 hrs by sulforhodamine B assay; format: functional; settings: RXF 393, 48 h, read-out: Activity
[25] = Antiproliferative activity against human LOXIMVI cells assessed as cell growth at 10^-4 M after 48 hrs by sulforhodamine B assay; format: functional; settings: LOX IMVI, read-out: Activity
[26] = test system: KM12; assay: Antiproliferative activity against human KM12 cells assessed as growth inhibition after 48 hrs by sulforhodamine B assay; format: functional; settings: KM12, 48 h
[27] = Antiproliferative activity against human SKOV3 cells assessed as cell growth at 10^-4 M after 48 hrs by sulforhodamine B assay; format: functional; settings: SK-OV-3, 48 h, read-out: Activity
[28] = test system: NCI-H522; assay: Antiproliferative activity against human NCI-H522 cells assessed as cell growth at 10^-6 M after 48 hrs by sulforhodamine B assay; format: functional; settings: NCI-H522, 48 h, read-out: Activity
[29] = test system: MDA-MB-468; assay: Antiproliferative activity against human MDA-MB-468 cells assessed as cell growth at 10^-6 M after 48 hrs by sulforhodamine B assay; format: functional; settings: MDA-MB-468, 48 h, read-out: Activity
[30] = biological target: hERG (KCNH2) (Homo sapiens, UniProt Q12809); assay: Inhibition of human ERG assessed as reduction in channel current at 100 uM by automated patch-clamp electrophysiology assay
Chain of hERG (KCNH2) (Q12809 whole entry): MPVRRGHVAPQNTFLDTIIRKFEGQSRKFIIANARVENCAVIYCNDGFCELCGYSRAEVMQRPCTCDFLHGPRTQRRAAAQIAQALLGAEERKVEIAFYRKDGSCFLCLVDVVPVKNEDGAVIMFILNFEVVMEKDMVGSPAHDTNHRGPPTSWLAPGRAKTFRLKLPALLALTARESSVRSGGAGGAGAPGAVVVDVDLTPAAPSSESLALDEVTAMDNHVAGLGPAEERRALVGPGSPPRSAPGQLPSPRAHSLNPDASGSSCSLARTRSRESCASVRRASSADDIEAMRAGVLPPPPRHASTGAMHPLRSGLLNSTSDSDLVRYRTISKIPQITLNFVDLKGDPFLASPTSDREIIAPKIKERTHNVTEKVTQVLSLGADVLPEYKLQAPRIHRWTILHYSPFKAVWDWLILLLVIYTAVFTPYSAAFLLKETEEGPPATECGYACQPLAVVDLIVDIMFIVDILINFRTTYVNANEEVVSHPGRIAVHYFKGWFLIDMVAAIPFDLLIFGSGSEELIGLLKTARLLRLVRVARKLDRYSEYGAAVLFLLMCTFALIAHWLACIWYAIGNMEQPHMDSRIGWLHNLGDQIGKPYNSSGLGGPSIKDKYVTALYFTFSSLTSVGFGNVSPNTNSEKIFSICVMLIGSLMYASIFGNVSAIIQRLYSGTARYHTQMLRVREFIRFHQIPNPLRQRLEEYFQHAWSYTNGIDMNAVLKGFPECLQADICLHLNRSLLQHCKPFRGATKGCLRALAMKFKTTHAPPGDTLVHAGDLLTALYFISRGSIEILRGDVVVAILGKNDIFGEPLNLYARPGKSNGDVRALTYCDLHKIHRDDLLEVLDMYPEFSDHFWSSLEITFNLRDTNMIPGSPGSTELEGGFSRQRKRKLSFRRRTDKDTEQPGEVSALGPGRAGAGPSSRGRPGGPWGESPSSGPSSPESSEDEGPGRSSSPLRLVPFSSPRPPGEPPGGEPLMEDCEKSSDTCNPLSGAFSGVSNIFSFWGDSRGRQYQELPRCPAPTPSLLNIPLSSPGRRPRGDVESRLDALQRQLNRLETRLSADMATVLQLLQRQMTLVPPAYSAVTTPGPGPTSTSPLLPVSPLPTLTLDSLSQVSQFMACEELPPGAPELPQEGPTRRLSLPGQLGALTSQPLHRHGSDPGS

[31] = test system: 786-0; assay: Antiproliferative activity against human 786-0 cells assessed as cell growth at 10^-7 M after 48 hrs by sulforhodamine B assay; format: functional; settings: 786-0, 48 h, read-out: Activity
[32] = test system: MCF7; assay: Antiproliferative activity against human MCF7 cells assessed as cell growth at 10^-4 M after 48 hrs by sulforhodamine B assay; format: functional; settings: MCF7, 48 h, read-out: Activity
[33] = test system: NCI-H226; assay: Antiproliferative activity against human NCI-H226 cells assessed as cell growth at 10^-6 M after 48 hrs by sulforhodamine B assay; format: functional; settings: NCI-H226, 48 h, read-out: Activity
[34] = Antiproliferative activity against human SKOV3 cells assessed as cell growth at 10^-6 M after 48 hrs by sulforhodamine B assay; format: functional; settings: SK-OV-3, 48 h, read-out: Activity
[35] = Antiproliferative activity against human OVCAR5 cells assessed as cell growth at 10^-8 M after 48 hrs by sulforhodamine B assay; format: functional; settings: OVCAR-5, 48 h, read-out: Activity
[36] = Antiproliferative activity against human SF268 cells assessed as cell growth at 10^-6 M after 48 hrs by sulforhodamine B assay; format: functional; settings: SF-268, 48 h, read-out: Activity
[37] = read-out: LC50 (the source's name)

CNC(=O)c1cc(Oc2ccc3nc(NC(=O)Nc4cc(C(F)(F)F)cc(C(F)(F)F)c4)sc3c2)ccn1
growth at 0.1 µM [1]: 98%
growth at 1 µM [2]: 51%
growth at 1 µM [3]: 73%
growth at 1 µM [4]: 62%
growth at 0.01 µM [5]: 99%
GI50 [6]: 1340 nM
TGI [6]: 3070 nM
CC50 [6, 37]: 7050 nM
growth at 0.01 µM [7]: 97%
growth at 100 µM [8]: -36%
growth at 100 µM [9]: -83%
growth at 0.01 µM [10]: 92%
GI50 [11]: 479 nM
TGI [11]: 2300 nM
CC50 [11, 37]: 8470 nM
GI50 [12]: 1230 nM
LC50 (concentration killing 50% of cells) [12]: 6600 nM
TGI [12]: 2850 nM
growth at 100 µM [13]: -38%
growth at 0.1 µM [14]: 91%
growth at 1 µM [15]: 37%
growth at 100 µM [16]: -67%
growth at 0.01 µM [17]: 93%
growth at 0.1 µM [18]: 99%
growth at 0.1 µM [19]: 97%
growth at 100 µM [20]: -87%
growth at 0.01 µM [21]: 89%
growth at 0.01 µM [22]: 89%
growth at 0.1 µM [23]: 87%
growth at 1 µM [24]: 63%
growth at 100 µM [25]: -62%
GI50 [26]: 444 nM
LC50 [26]: 7960 nM
TGI [26]: 2000 nM
growth at 100 µM [27]: -84%
growth at 1 µM [28]: 32%
growth at 1 µM [29]: 22%
inhibition at 100 µM [30]: 30.2%
growth at 0.1 µM [31]: 99%
growth at 100 µM [32]: -55%
growth at 1 µM [33]: 71%
growth at 1 µM [34]: 72%
growth at 0.01 µM [35]: 94%
growth at 1 µM [36]: 65%
